{
  "source": "patent US20090068290A1",
  "about": "“BIFEPRUNOX DOSES FOR TREATING SCHIZOPHRENIA” (priority 2006, published 2009)",
  "type_in_all_cases": "in vivo, human",
  "key": {"[1]": {"test_system": "adult subjects with schizophrenia", "test": "CGI Improvement score, Clinical Study Two", "conditions": "40 mg, LOCF", "procedure": "Rating scale assessments were performed weekly, except for week 5, to measure the change from baseline to endpoint of the PANSS total score. Other assessments included: PANSS positive symptom subscale score, PANSS negative symptom subscale score, PANSS general pschopathology subscale score, BPRS total score, BPRS psychosis score, the CGI-S score, the CGI-I score, responder rates based on the PANSS total score, and the Calgary Depression Scale for Schizophrenia (CDSS). […]\nSubjects who completed this study had the option to continue in the long-term. […] Risperidone-treated subjects were titrated from 2 mg to 6 mg daily over a three-day period and were subsequently maintained at 6 mg/day for the remainder of the treatment period. […] Blood samples were also obtained at Screening/Baseline, Week 3, and Week 6 for clinical laboratory assessments."}, "[2]": {"test_system": "adult subjects with schizophrenia", "test": "PANSS positive symptom subscale score, Clinical Study Three", "conditions": "LOCF, ITT; for PANSS Positive Symptom Subscale Score, Trt Effect (bifeprunox—placebo): ANCOVA", "description": "(§1) SECONDARY OBJECTIVES To assess the efficacy of bifeprunox in treating schizophrenia using the Positive Symptom sub-scale score of the PANSS, the Negative Symptom sub-scale score of the PANSS, the General Psychopathology sub-scale of the PANSS, Brief Psychiatric Rating Scale (BPRS) total score derived from the PANSS, BPRS psychosis score derived from the PANSS, the Clinical Global Impression Severity of Illness score (CGI-S), the Clinical Global Impression Improvement score (CGI-I), CGI-I responder rate, PANSS responder rate based on the PANSS total score, Calgary Depression Scale for Schizophrenia (CDSS), and Subject Satisfaction rating.\n(§2) There were four treatment arms in this study, approximately 144 subjects per arm. […] After completing the Single-Blind Placebo Lead-in Period of at least three days, bifeprunox-treated subjects were titrated from 0.25 mg up to 20 mg/day or 30 mg/day according to a standardized titration scheme over a seven- or eight-day period, respectively. When the assigned dose was reached, subjects were maintained at that dose for the remainder of the six week treatment period. […] Subjects were hospitalized (if not already inpatients) after eligibility for study entry was verified, starting from the Screening Visit until at least 10 days after Baseline. Subjects could be hospitalized longer than 10 days if considered medically necessary by the Investigator. Rating scale assessments for efficacy and abnormal movement disorders were done weekly except for Week 5. […] Subject satisfaction with study medication was assessed at Week 6."}, "[3]": {"test_system": "adult subjects with schizophrenia", "test": "CGI responder rate, Clinical Study Three", "conditions": "LOCF; for CGI Responder No, % / CGI Responder Yes, %: Week 6/Endpoint", "source_text": "CLINICAL STUDY THREE: A CGI responder is defined as a subject who is categorized as “very much improved” or “much improved” on the CGI Improvement scale. […] No notable differences were observed between the placebo group and either of the two bifeprunox dose groups."}, "[4]": {"test_system": "adult subjects with schizophrenia", "test": "Calgary Depression Scale for Schizophrenia (CDSS), Clinical Study Three", "conditions": "for CDSS Total Score, Trt Effect / Change from Baseline in CDSS Total Score, Mean (SD) / Change from Baseline in CDSS Total Score, Median / mean change (SD) from Baseline to Endpoint in CDSS score: LOCF; for CDSS score, treatment effect (bifeprunox, placebo): Endpoint LOCF; for mean change (SD) from Baseline to Endpoint in CDSS score: ITT", "description": "as §1, §2"}, "[5]": {"conditions": "Bifeprunox 20 mg, Week 6/Endpoint"}, "[6]": {"conditions": "Bifeprunox 30 mg, Week 6/Endpoint"}},
  "data": [
    {"smiles": "O=c1[nH]c2cccc(N3CCN(Cc4cccc(-c5ccccc5)c4)CC3)c2o1", "note": "[Bifeprunox, 7-[4-([1,1′-biphenyl]-3-ylmethyl)-1-piperazinyl]-2(3H)-benzoxazolone]", "values": [
      {"measurement": "CGI Improvement Very Much Improved, %", "setting": "[1]; Week 3", "value": "(5%)"},
      {"measurement": "CGI Improvement Minimally Improved, %", "setting": "[1]; Week 4", "value": "(29%)"},
      {"measurement": "CGI Improvement Minimally Worse, %", "setting": "[1]; Week 4", "value": "(9%)"},
      {"measurement": "CGI Improvement Much Improved, %", "setting": "[1]; Week 4", "value": "(20%)"},
      {"measurement": "CGI Improvement Much Worse, %", "setting": "[1]; Week 4", "value": "(14%)"},
      {"measurement": "CGI Improvement No Change, %", "setting": "[1]; Week 4", "value": "(21%)"},
      {"measurement": "CGI Improvement Very Much Improved, %", "setting": "[1]; Week 4", "value": "(7%)"},
      {"measurement": "CGI Improvement Minimally Improved, %", "setting": "[1]; Week 6/Endpoint", "value": "(26%)"},
      {"measurement": "CGI Improvement Minimally Worse, %", "setting": "[1]; Week 6/Endpoint", "value": "(11%)"},
      {"measurement": "CGI Improvement Much Improved, %", "setting": "[1]; Week 6/Endpoint", "value": "(19%)"},
      {"measurement": "CGI Improvement Much Worse, %", "setting": "[1]; Week 6/Endpoint", "value": "(15%)"},
      {"measurement": "CGI Improvement No Change, %", "setting": "[1]; Week 6/Endpoint", "value": "(20%)"},
      {"measurement": "CGI Improvement Very Much Improved, %", "setting": "[1]; Week 6/Endpoint", "value": "(9%)"},
      {"measurement": "Change from Baseline in PANSS Positive Symptom Subscale Score, Mean (SD)", "setting": "[2]; Bifeprunox 20 mg, Week 1", "value": "−1.6 (3.7)"},
      {"measurement": "Change from Baseline in PANSS Positive Symptom Subscale Score, Median", "setting": "[2]; Bifeprunox 20 mg, Week 1", "value": "−2"},
      {"measurement": "Change from Baseline in PANSS Positive Symptom Subscale Score, Mean (SD)", "setting": "[2]; Bifeprunox 20 mg, Week 2", "value": "−3.0 (4.7)"},
      {"measurement": "Change from Baseline in PANSS Positive Symptom Subscale Score, Median", "setting": "[2]; Bifeprunox 20 mg, Week 2", "value": "−3"},
      {"measurement": "Change from Baseline in PANSS Positive Symptom Subscale Score, Mean (SD)", "setting": "[2]; Bifeprunox 20 mg, Week 3", "value": "−3.8 (5.2)"},
      {"measurement": "Change from Baseline in PANSS Positive Symptom Subscale Score, Median", "setting": "[2]; Bifeprunox 20 mg, Week 3", "value": "−3"},
      {"measurement": "Change from Baseline in PANSS Positive Symptom Subscale Score, Mean (SD)", "setting": "[2]; Bifeprunox 20 mg, Week 4", "value": "−4.2 (5.7)"},
      {"measurement": "Change from Baseline in PANSS Positive Symptom Subscale Score, Median", "setting": "[2]; Bifeprunox 20 mg, Week 4", "value": "−4"},
      {"measurement": "Change from Baseline in PANSS Positive Symptom Subscale Score, Mean (SD)", "setting": "[2]; [5]", "value": "−4.3 (6.1)"},
      {"measurement": "Change from Baseline in PANSS Positive Symptom Subscale Score, Median", "setting": "[2]; [5]", "value": "−4"},
      {"measurement": "PANSS Positive Symptom Subscale Score, Trt Effect (bifeprunox—placebo)", "setting": "[2]; [5]", "value": "−1.1"},
      {"measurement": "Change from Baseline in PANSS Positive Symptom Subscale Score, Mean (SD)", "setting": "[2]; Bifeprunox 30 mg, Week 1", "value": "−2.0 (3.8)"},
      {"measurement": "Change from Baseline in PANSS Positive Symptom Subscale Score, Median", "setting": "[2]; Bifeprunox 30 mg, Week 1", "value": "−2"},
      {"measurement": "Change from Baseline in PANSS Positive Symptom Subscale Score, Mean (SD)", "setting": "[2]; Bifeprunox 30 mg, Week 2", "value": "−2.8 (5.1)"},
      {"measurement": "Change from Baseline in PANSS Positive Symptom Subscale Score, Median", "setting": "[2]; Bifeprunox 30 mg, Week 2", "value": "−3"},
      {"measurement": "Change from Baseline in PANSS Positive Symptom Subscale Score, Mean (SD)", "setting": "[2]; Bifeprunox 30 mg, Week 3", "value": "−3.6 (6.0)"},
      {"measurement": "Change from Baseline in PANSS Positive Symptom Subscale Score, Median", "setting": "[2]; Bifeprunox 30 mg, Week 3", "value": "−4"},
      {"measurement": "Change from Baseline in PANSS Positive Symptom Subscale Score, Mean (SD)", "setting": "[2]; Bifeprunox 30 mg, Week 4", "value": "−4.0 (6.3)"},
      {"measurement": "Change from Baseline in PANSS Positive Symptom Subscale Score, Median", "setting": "[2]; Bifeprunox 30 mg, Week 4", "value": "−4"},
      {"measurement": "Change from Baseline in PANSS Positive Symptom Subscale Score, Mean (SD)", "setting": "[2]; [6]", "value": "−4.2 (6.8)"},
      {"measurement": "Change from Baseline in PANSS Positive Symptom Subscale Score, Median", "setting": "[2]; [6]", "value": "−5"},
      {"measurement": "PANSS Positive Symptom Subscale Score, Trt Effect (bifeprunox—placebo)", "setting": "[2]; [6]", "value": "−0.7"},
      {"measurement": "CGI Responder No, %", "setting": "[3]; 20 mg", "value": 62, "unit": "%"},
      {"measurement": "CGI Responder Yes, %", "setting": "[3]; 20 mg", "value": 38, "unit": "%"},
      {"measurement": "CGI Responder No, %", "setting": "[3]; 30 mg", "value": 66, "unit": "%"},
      {"measurement": "CGI Responder Yes, %", "setting": "[3]; 30 mg", "value": 34, "unit": "%"},
      {"measurement": "CGI-I responder rate (subjects much or very much improved) at Endpoint", "setting": "[3]; bifeprunox 20 mg", "value": 38, "unit": "%"},
      {"measurement": "CGI-I responder rate (subjects much or very much improved) at Endpoint", "setting": "[3]; bifeprunox 30 mg", "value": 34, "unit": "%"},
      {"measurement": "CDSS Total Score, Trt Effect", "setting": "[4]; 20 mg versus placebo, Week 6, Endpoint", "value": "−0.54"},
      {"measurement": "Change from Baseline in CDSS Total Score, Mean (SD)", "setting": "[4]; 20 mg, Week 1", "value": "−0.86 (2.87)"},
      {"measurement": "Change from Baseline in CDSS Total Score, Median", "setting": "[4]; 20 mg, Week 1", "value": 0.0},
      {"measurement": "Change from Baseline in CDSS Total Score, Mean (SD)", "setting": "[4]; 20 mg, Week 2", "value": "−1.19 (3.30)"},
      {"measurement": "Change from Baseline in CDSS Total Score, Median", "setting": "[4]; 20 mg, Week 2", "value": "−1.0"},
      {"measurement": "Change from Baseline in CDSS Total Score, Mean (SD)", "setting": "[4]; 20 mg, Week 3", "value": "−1.41 (3.72)"},
      {"measurement": "Change from Baseline in CDSS Total Score, Median", "setting": "[4]; 20 mg, Week 3", "value": "−1.0"},
      {"measurement": "Change from Baseline in CDSS Total Score, Mean (SD)", "setting": "[4]; 20 mg, Week 4", "value": "−1.35 (3.66)"},
      {"measurement": "Change from Baseline in CDSS Total Score, Median", "setting": "[4]; 20 mg, Week 4", "value": "−1.0"},
      {"measurement": "Change from Baseline in CDSS Total Score, Mean (SD)", "setting": "[4]; 20 mg, Week 6, Endpoint", "value": "−1.30 (3.85)"},
      {"measurement": "Change from Baseline in CDSS Total Score, Median", "setting": "[4]; 20 mg, Week 6, Endpoint", "value": 0.0},
      {"measurement": "CDSS Total Score, Trt Effect", "setting": "[4]; 30 mg versus placebo, Week 6, Endpoint", "value": "−0.34"},
      {"measurement": "Change from Baseline in CDSS Total Score, Mean (SD)", "setting": "[4]; 30 mg, Week 1", "value": "−0.77 (2.63)"},
      {"measurement": "Change from Baseline in CDSS Total Score, Median", "setting": "[4]; 30 mg, Week 1", "value": 0.0},
      {"measurement": "Change from Baseline in CDSS Total Score, Mean (SD)", "setting": "[4]; 30 mg, Week 2", "value": "−0.69 (2.97)"},
      {"measurement": "Change from Baseline in CDSS Total Score, Median", "setting": "[4]; 30 mg, Week 2", "value": 0.0},
      {"measurement": "Change from Baseline in CDSS Total Score, Mean (SD)", "setting": "[4]; 30 mg, Week 3", "value": "−0.60 (3.10)"},
      {"measurement": "Change from Baseline in CDSS Total Score, Median", "setting": "[4]; 30 mg, Week 3", "value": 0.0},
      {"measurement": "Change from Baseline in CDSS Total Score, Mean (SD)", "setting": "[4]; 30 mg, Week 4", "value": "−0.65 (3.07)"},
      {"measurement": "Change from Baseline in CDSS Total Score, Median", "setting": "[4]; 30 mg, Week 4", "value": 0.0},
      {"measurement": "Change from Baseline in CDSS Total Score, Mean (SD)", "setting": "[4]; 30 mg, Week 6, Endpoint", "value": "−0.79 (3.02)"},
      {"measurement": "Change from Baseline in CDSS Total Score, Median", "setting": "[4]; 30 mg, Week 6, Endpoint", "value": "−1.0"},
      {"measurement": "CDSS score, treatment effect (bifeprunox, placebo)", "setting": "[4]; bifeprunox 20 mg (first mention)", "value": "−0.54"},
      {"measurement": "mean change (SD) from Baseline to Endpoint in CDSS score", "setting": "[4]; bifeprunox 20 mg", "value": "−1.30 (3.85)"},
      {"measurement": "mean change (SD) from Baseline to Endpoint in CDSS score", "setting": "[4]; bifeprunox 30 mg", "value": "−0.79 (3.02)"},
      {"measurement": "CDSS score, treatment effect (bifeprunox, placebo)", "setting": "[4]; bifeprunox", "value": "−0.34"}
    ]}
  ]
}
